The data set in a line: Water solubility examination. The class given is physicochemical. The conditions noted are these: 1.44 mg of oridonin in 4 ml water. How it is done: Water solubility of the present nanoparticle is examined. 1.44 mg of oridonin is dissolved in 4 ml water. […] Large amount of white insoluble white oridonin powder is observed. On the other hand, oridonin functionalized selenium nanoparticle containing 1.68 mg of oridonin is prepared according to the present invention and dissolved in 4 ml water. […] The oridonin functionalized selenium nanoparticle aqueous solution is orangey red in color and no insoluble residue is observed.

Oridonin: the water solubility result is reported as “insoluble in water”.

Source of the values: patent US9624237B2 (priority 2015, dated 2017).
